How the values were obtained:
[1] = system: phenyl-p-benzoquinone induced writhing; assay: mouse antiphenylquinone writhing test (prevention of phenyl-p-benzoquinone induced writhing; oral analgesic activity); assay type: in vivo, mouse (male CF1)
Protocol: Male CF1 mice obtained from Charles River Breeding Laboratories, fasted for 16-22 hours, and weighing 18-22 g at the time of testing are used throughout. All mice are dosed orally with acetaminophen and/or zomepirac (calculated as the sodium salt) dissolved completely in distilled water containing as vehicle 2% by volume of Tween 80®, a pharmacological dispersant manufactured by Fisher Scientific Company and containing 100% polysorbate 80. A dosing volume of 20 ml/kg is used. All doses are coded and the test is performed under a code not known to the observer.
A standard procedure for detecting and comparing the analgesic activity of different classes of analgesia drugs for which there is a good correlation with human efficacy is the prevention of phenyl-p-benzoquinone induced writhing in mice (H. Blumberg et al.; Proc. Soc. Exp. Biol. Med. 118, 763-766, 1965).
Mice, intubated with various doses of sodium zomepirac, acetaminophen, combined doses of sodium zomepirac and acetaminophen, or vehicle, are injected intraperitoneally with a challenge dose of phenyl-p-benzoquinone.The phenyl-p-benzoquinone is prepared as a 0.1 mg/ml solution in 5% by volume of ethanol in water; the writhing dose is 1.25 mg/kg injected at the rate of 0.25 ml/20 g. For scoring purposes a "writhe" is indicated by whole body stretching or contraction of the abdomen: mice are observed 10 minutes for the presence or absence of writhing beginning 5 minutes after receiving the phenyl-p-benzoquinone dose. Each mouse is used only once, then discarded.
In order to study the interaction between zomepirac and acetaminophen, precise dosage ratios of sodium zomepirac and acetaminophen are selected. Four to five coded doses of each selected combination are studied for analgesic effectiveness at 10 minutes using an experimental design which permits complete randomization of the separate dosage forms tested. Altogether 25 separate dosage forms are used and each form is represented in each experimental session. The experiments are continued by running experimental sessions with an equal number of mice being tested for each dosage group until the total number, N, of mice tested per group is 20.
In the drawing, the diagonal line joining the ED50 values of the two drugs given separately represents simple additivity of drug effects. The dashed lines on each side of the diagonal line give the 95% confidence limits for this line of additivity. […] The 3 diagonal lines radiating from the origin represent the dose ratios of sodium zomepirac to acetaminophen used in mice receiving the combined drug dosages.

[2] = system: phenyl-p-benzoquinone induced writhing; assay: as above; assay type: in vivo, mouse (male CF1); conditions: 10 min, preliminary experiment, 95% confidence limits 0.80-1.69 (sodium zomepirac), 166-281 (acetaminophen)

% MICE BLOCKED ([1]; sodium zomepirac 0 + acetaminophen 54 mg/kg)	% MICE BLOCKED ([1]; sodium zomepirac 0 + acetaminophen 108 mg/kg)	% MICE BLOCKED ([1]; sodium zomepirac 0 + acetaminophen 216 mg/kg)	% MICE BLOCKED ([1]; sodium zomepirac 0 + acetaminophen 432 mg/kg)	% MICE BLOCKED ([1]; sodium zomepirac 0.29 + acetaminophen 0 mg/kg)	% MICE BLOCKED ([1]; sodium zomepirac 0.58 + acetaminophen 0 mg/kg)	% MICE BLOCKED ([1]; sodium zomepirac 1.16 + acetaminophen 0 mg/kg)	% MICE BLOCKED ([1]; sodium zomepirac 2.32 + acetaminophen 0 mg/kg)	% MICE BLOCKED ([1]; sodium zomepirac 4.64 + acetaminophen 0 mg/kg)	SMILES	ED50 at 10 Min. (95% Confidence limits), Acetaminophen (alone or as component of the combination) ([1]; 10 min, N = 20 mice/dose, 95% limits on following lines: alone 162-309, 1:62.1 22.6-40.6, 1:186 37.7-68.5, 1:559 62.6-111)	ED50 [2]	ED50 at 10 Min. (95% Confidence limits), Sodium Zomepirac (alone or as component of the combination) ([1]; 10 min, N = 20 mice/dose, 95% limits on following lines: alone 1.09-2.12, 1:62.1 0.367-0.649, 1:186 0.204-0.365, 1:559 0.114-0.195)
10%	30%	45%	75%						CC(=O)Nc1ccc(O)cc1 [Acetaminophen, N-(4-hydroxyphenyl)acetamide]	224 mg/kg	216 mg/kg	
				5%	20%	35%	60%	95%	Cc1cc(CC(=O)O)n(C)c1C(=O)c1ccc(Cl)cc1 [Sodium Zomepirac]		1.16 mg/kg	1.52 mg/kg

Reference: US4260629A, “Treating pain with acetaminophen and 1,4-dimethyl-5-p-chlorobenzoyl-pyrrole-2-acetic acid” (E. I. Du Pont de Nemours and Company, priority 1979, dated 1981)
